# Laboratory results published in patent US6379696B1, “Therapeutic preparation for the transdermal administration of active substances” (priority 1995, dated 2002).
# Tests used:
# [1] = Permeation rate of morphine base through excised guinea pig skin with added LOVASTATIN; settings: LOVASTATIN 2%-wt. added; after 24 h; released in 0.9% salt solution, T=37° C., n=3
# [2] = topical application; cited from earlier work
compound,measurement,setting,value
CC[C@H](C)C(=O)O[C@H]1C[C@@H](C)C=C2C=C[C@H](C)[C@H](CC[C@@H]3C[C@@H](O)CC(=O)O3)[C@H]21 [LOVASTATIN],permeation rate of morphine base,[1],double
same,DNA-synthesis in the epidermis,[2],increase
same,cholesterol level in the skin,[2],decrease
same,transepidermal loss of water,[2],increase
